From patent US20250009660A1, “LIPID COMPOUND, LIPOSOME, EXOSOME, LIPID NANOPARTICLE, AND DRUG DELIVERY SYSTEM” (NAGASAKI UNIVERSITY, priority 2021, published 2025)
“Also recorded” adds a separate entry of the source.

Tests used:
NIH3T3 = assay: Evaluation of cell binding properties / cell uptake of modified liposome; format: cell-based, Mouse; conditions: NIH3T3 cells; for cell uptake (cell binding properties): rhodamine-labeled liposome modified with the lipid compound (FIG. 13)
From the text: (§1) The liposome was modified with a lipid compound by a post-modification method using NanoAssemblr (nano pharmaceutical production apparatus; manufactured by Precision NanoSystems Inc.).

C26 = assay: as above; format: cell-based, Mouse; conditions: C26 cells; for cell uptake (cell binding properties): rhodamine-labeled liposome modified with the lipid compound (FIG. 13)
From the text: as §1

[1] = liposome modified with the lipid, compared with KK-(EK)4 lipid-modified liposome (FIG. 15)

| Substance | cell uptake (cell binding properties) (NIH3T3) | cell uptake (cell binding properties) (C26) | cell binding properties (NIH3T3; [1]) | cell binding properties (C26; [1]) |
| --- | --- | --- | --- | --- |
| KKKK-(EK)4-dipalmitoyllysine [K4] | an increase in cell uptake was observed compared with the unmodified liposome; also recorded: the uptake of K3 and K4 when compared with K2 was the same | an increase in cell uptake was observed compared with the unmodified liposome; also recorded: the uptake of K3 and K4 when compared with K2 was the same |  |  |
| KKK-(EK)4-dipalmitoyllysine [K3] | an increase in cell uptake was observed compared with the unmodified liposome; also recorded: the uptake of K3 and K4 when compared with K2 was the same | an increase in cell uptake was observed compared with the unmodified liposome; also recorded: the uptake of K3 and K4 when compared with K2 was the same |  |  |
| K-(EK)4-dipalmitoyllysine [K1] | an increase in cell uptake was observed compared with the unmodified liposome | an increase in cell uptake was observed compared with the unmodified liposome |  |  |
| KK-(EK)4-dipalmitoyllysine [K2] | an increase in cell uptake was observed compared with the unmodified liposome; also recorded: In comparison with K1, the uptake of K2 increased in all of the cells | an increase in cell uptake was observed compared with the unmodified liposome; also recorded: In comparison with K1, the uptake of K2 increased in all of the cells |  |  |
| RR-(EK)4-dipalmitoyllysine [RR-(EK)4 lipid] |  |  | the same cell binding properties were exhibited | the same cell binding properties were exhibited |
